In PubChem BioAssay AID1963971 (Molecular Pharmacology Branch, DTP, NCI, 2024):

System: 953936-095-R-J2-PDC spheroids with HUVEC/MSC, viability
Assay: Anticancer human tumor 953936-095-R-J2-PDC patient-derived cervical squamous cell carcinoma cell line growth inhibition [PI3K]
Conditions: for IC50: curve of first compound; for viability, T/C: stronger effect = lower value
Method in brief: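 We assembled tumor spheroids that included a stromal compartment of HUVEC and MSCs, then exposed them to targeted agents alone and together with PI3K pathway inhibitors. Concentration series descended by half-log from clinically achievable Cmax levels. Viability served as the endpoint.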

[1] = second compound 0.00316 µM, first compound 0.0316 µM
[2] = second compound 0.00316 µM, first compound 0.1 µM
[3] = second compound 0.00316 µM, first compound 0.316 µM
[4] = second compound 0.00316 µM, first compound 1 µM
[5] = second compound 0.00316 µM, first compound 3.16 µM
[6] = second compound 0.00316 µM, first compound 10 µM
[7] = second compound 0.01 µM, first compound 0.0316 µM
[8] = second compound 0.01 µM, first compound 0.1 µM
[9] = second compound 0.01 µM, first compound 0.316 µM
[10] = second compound 0.01 µM, first compound 1 µM
[11] = second compound 0.01 µM, first compound 3.16 µM
[12] = second compound 0.01 µM, first compound 10 µM
[13] = second compound 0.0316 µM, first compound 0.0316 µM
[14] = second compound 0.0316 µM, first compound 0.1 µM
[15] = second compound 0.0316 µM, first compound 0.316 µM
[16] = second compound 0.0316 µM, first compound 1 µM
[17] = second compound 0.0316 µM, first compound 3.16 µM
[18] = second compound 0.0316 µM, first compound 10 µM
[19] = second compound 0.1 µM, first compound 0.0316 µM
[20] = second compound 0.1 µM, first compound 0.1 µM
[21] = second compound 0.1 µM, first compound 0.316 µM
[22] = second compound 0.1 µM, first compound 1 µM
[23] = second compound 0.1 µM, first compound 3.16 µM
[24] = second compound 0.1 µM, first compound 10 µM
[25] = second compound 0.316 µM, first compound 0.0316 µM
[26] = second compound 0.316 µM, first compound 0.1 µM
[27] = second compound 0.316 µM, first compound 0.316 µM
[28] = second compound 0.316 µM, first compound 1 µM
[29] = second compound 0.316 µM, first compound 3.16 µM
[30] = second compound 0.316 µM, first compound 10 µM
[31] = second compound 1 µM, first compound 0.0316 µM
[32] = second compound 1 µM, first compound 0.1 µM
[33] = second compound 1 µM, first compound 0.316 µM
[34] = second compound 1 µM, first compound 1 µM
[35] = second compound 1 µM, first compound 3.16 µM
[36] = second compound 1 µM, first compound 10 µM
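Also: spheroids exposed to compounds for seven days before read-out.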

C#Cc1c(F)ccc2cc(O)cc(-c3ncc4c(N5CC6CCC(C5)N6)nc(OCC56CCCN5CC(F)C6)nc4c3F)c12 (stereo not drawn) + COc1c(OCCCN2CCOCC2)ccc2c3n(c(=NC(=O)c4cnc(N)nc4)nc12)CCN3
IC50 (second compound 0.00316 µM): > 10000 nM | IC50 (second compound 0.01 µM): 3920 nM | IC50 (second compound 0.0316 µM): < 31.6 nM | IC50 (second compound 0.1 µM): < 31.6 nM | IC50 (second compound 0.316 µM): < 31.6 nM | IC50 (second compound 1 µM): < 31.6 nM | viability, T/C [1]: 81.9% | viability, T/C [2]: 87.8% | viability, T/C [3]: 86.6% | viability, T/C [4]: 92.2% | viability, T/C [5]: 72% | viability, T/C [6]: 58.9% | viability, T/C [7]: 75.5% | viability, T/C [8]: 74.1% | viability, T/C [9]: 69.1% | viability, T/C [10]: 58.4% | viability, T/C [11]: 54.3% | viability, T/C [12]: 40% | viability, T/C [13]: 40.1% | viability, T/C [14]: 39.5% | viability, T/C [15]: 38.7% | viability, T/C [16]: 33.8% | viability, T/C [17]: 25.7% | viability, T/C [18]: 19.6% | viability, T/C [19]: 18.3% | viability, T/C [20]: 18.8% | viability, T/C [21]: 14.1% | viability, T/C [22]: 10.9% | viability, T/C [23]: 8.08% | viability, T/C [24]: 6.07% | viability, T/C [25]: 5.75% | viability, T/C [26]: 4.83% | viability, T/C [27]: 4.36% | viability, T/C [28]: 3.39% | viability, T/C [29]: 2.56% | viability, T/C [30]: 1.89% | viability, T/C [31]: 1.56% | viability, T/C [32]: 1.33% | viability, T/C [33]: 0.98% | viability, T/C [34]: 1.02% | viability, T/C [35]: 0.79% | viability, T/C [36]: 0.41%

CC(Cn1ccc(-c2ccc(C#N)c(Cl)c2)n1)NC(=O)c1cc(C(C)O)[nH]n1 (stereo not drawn) + COc1c(OCCCN2CCOCC2)ccc2c3n(c(=NC(=O)c4cnc(N)nc4)nc12)CCN3
IC50 (second compound 0.00316 µM): > 10000 nM | IC50 (second compound 0.01 µM): > 10000 nM | IC50 (second compound 0.0316 µM): < 31.6 nM | IC50 (second compound 0.1 µM): < 31.6 nM | IC50 (second compound 0.316 µM): < 31.6 nM | IC50 (second compound 1 µM): < 31.6 nM | viability, T/C [1]: 80.3% | viability, T/C [2]: 88.3% | viability, T/C [3]: 84.1% | viability, T/C [4]: 101% | viability, T/C [5]: 90.7% | viability, T/C [6]: 89.2% | viability, T/C [7]: 68.8% | viability, T/C [8]: 71.6% | viability, T/C [9]: 76.3% | viability, T/C [10]: 71.1% | viability, T/C [11]: 78.9% | viability, T/C [12]: 70.2% | viability, T/C [13]: 43.5% | viability, T/C [14]: 40.9% | viability, T/C [15]: 42.6% | viability, T/C [16]: 39.8% | viability, T/C [17]: 46.2% | viability, T/C [18]: 41.1% | viability, T/C [19]: 19.4% | viability, T/C [20]: 19.4% | viability, T/C [21]: 20.7% | viability, T/C [22]: 20.3% | viability, T/C [23]: 21.8% | viability, T/C [24]: 19.8% | viability, T/C [25]: 7.44% | viability, T/C [26]: 6.25% | viability, T/C [27]: 7.53% | viability, T/C [28]: 6.55% | viability, T/C [29]: 7.13% | viability, T/C [30]: 8.7% | viability, T/C [31]: 1.6% | viability, T/C [32]: 1.39% | viability, T/C [33]: 2% | viability, T/C [34]: 1.92% | viability, T/C [35]: 2.08% | viability, T/C [36]: 1.97%

CC1(C)CCC(Nc2ncc(C(F)(F)F)c(-c3c[nH]c4c(P(C)(C)=O)c(C#N)ccc34)n2)CN1 (stereo not drawn) + COc1c(OCCCN2CCOCC2)ccc2c3n(c(=NC(=O)c4cnc(N)nc4)nc12)CCN3
IC50 (second compound 0.00316 µM): 31.6 nM | IC50 (second compound 0.01 µM): < 31.6 nM | IC50 (second compound 0.0316 µM): < 31.6 nM | IC50 (second compound 0.1 µM): < 31.6 nM | IC50 (second compound 0.316 µM): < 31.6 nM | IC50 (second compound 1 µM): < 31.6 nM | viability, T/C [1]: 45.6% | viability, T/C [2]: 47% | viability, T/C [3]: 53.5% | viability, T/C [4]: 47.1% | viability, T/C [5]: 52% | viability, T/C [6]: 5.49% | viability, T/C [7]: 46.2% | viability, T/C [8]: 42.2% | viability, T/C [9]: 49.5% | viability, T/C [10]: 35.5% | viability, T/C [11]: 44% | viability, T/C [12]: 6.01% | viability, T/C [13]: 26.9% | viability, T/C [14]: 22.6% | viability, T/C [15]: 25.4% | viability, T/C [16]: 25.5% | viability, T/C [17]: 24.4% | viability, T/C [18]: 1.19% | viability, T/C [19]: 11.9% | viability, T/C [20]: 16.5% | viability, T/C [21]: 12.2% | viability, T/C [22]: 11.8% | viability, T/C [23]: 8.68% | viability, T/C [24]: 0.34% | viability, T/C [25]: 5.51% | viability, T/C [26]: 5.07% | viability, T/C [27]: 3.84% | viability, T/C [28]: 4.98% | viability, T/C [29]: 3.94% | viability, T/C [30]: 0.16% | viability, T/C [31]: 1.33% | viability, T/C [32]: 1.62% | viability, T/C [33]: 1.12% | viability, T/C [34]: 1.34% | viability, T/C [35]: 1.37% | viability, T/C [36]: 0.31%

Cn1cnc2c(F)c(Nc3ccc(Br)cc3Cl)c(C(=O)NOCCO)cc21 + Cc1nc(NC(=O)N2CCCC2C(N)=O)sc1-c1ccnc(C(C)(C)C(F)(F)F)c1
IC50 (second compound 0.0316 µM): 748 nM | IC50 (second compound 0.1 µM): 308 nM | IC50 (second compound 0.316 µM): 36.8 nM | IC50 (second compound 1 µM): < 9.49 nM | IC50 (second compound 3.16 µM): < 9.49 nM | IC50 (second compound 10 µM): < 9.49 nM | viability, T/C (second compound 0.0316 µM, first compound 0.00949 µM): 85.7% | viability, T/C (second compound 0.0316 µM, first compound 0.03 µM): 87.1% | viability, T/C (second compound 0.0316 µM, first compound 0.0949 µM): 74.3% | viability, T/C (second compound 0.0316 µM, first compound 0.3 µM): 59.4% | viability, T/C (second compound 0.0316 µM, first compound 0.949 µM): 49.5% | viability, T/C (second compound 0.0316 µM, first compound 3 µM): 31.9% | viability, T/C (second compound 0.1 µM, first compound 0.00949 µM): 78.1% | viability, T/C (second compound 0.1 µM, first compound 0.03 µM): 70.1% | viability, T/C (second compound 0.1 µM, first compound 0.0949 µM): 52.7% | viability, T/C (second compound 0.1 µM, first compound 0.3 µM): 51.4% | viability, T/C (second compound 0.1 µM, first compound 0.949 µM): 47.4% | viability, T/C (second compound 0.1 µM, first compound 3 µM): 28.9% | viability, T/C (second compound 0.316 µM, first compound 0.00949 µM): 61.3% | viability, T/C (second compound 0.316 µM, first compound 0.03 µM): 50.8% | viability, T/C (second compound 0.316 µM, first compound 0.0949 µM): 43% | viability, T/C (second compound 0.316 µM, first compound 0.3 µM): 33.9% | viability, T/C (second compound 0.316 µM, first compound 0.949 µM): 26.1% | viability, T/C (second compound 0.316 µM, first compound 3 µM): 20.1% | viability, T/C (second compound 1 µM, first compound 0.00949 µM): 44% | viability, T/C (second compound 1 µM, first compound 0.03 µM): 35% | viability, T/C (second compound 1 µM, first compound 0.0949 µM): 24.9% | viability, T/C (second compound 1 µM, first compound 0.3 µM): 24.3% | viability, T/C (second compound 1 µM, first compound 0.949 µM): 12.1% | viability, T/C (second compound 1 µM, first compound 3 µM): 7.18% | viability, T/C (second compound 3.16 µM, first compound 0.00949 µM): 21.1% | viability, T/C (second compound 3.16 µM, first compound 0.03 µM): 15.3% | viability, T/C (second compound 3.16 µM, first compound 0.0949 µM): 11.3% | viability, T/C (second compound 3.16 µM, first compound 0.3 µM): 7.62% | viability, T/C (second compound 3.16 µM, first compound 0.949 µM): 5.36% | viability, T/C (second compound 3.16 µM, first compound 3 µM): 1.67% | viability, T/C (second compound 10 µM, first compound 0.00949 µM): 6.2% | viability, T/C (second compound 10 µM, first compound 0.03 µM): 5.44% | viability, T/C (second compound 10 µM, first compound 0.0949 µM): 4.18% | viability, T/C (second compound 10 µM, first compound 0.3 µM): 2.71% | viability, T/C (second compound 10 µM, first compound 0.949 µM): 1.25% | viability, T/C (second compound 10 µM, first compound 3 µM): 0.42%
